Test results published in ChEMBL document CHEMBL1201862, “PubChem BioAssay data set” (2004).
The source made the active and inactive calls.

Tests used:
[1] = target: T1, Sentrin-specific protease 1 (Homo sapiens, UniProt Q9P0U3); experiment: potency of human SENP1 inhibitors, dose response, biochemical, kinetic FRET (AID 651697); assay type: functional; settings: read-out: IC50_Mean
T1 sequence (Q9P0U3 whole entry): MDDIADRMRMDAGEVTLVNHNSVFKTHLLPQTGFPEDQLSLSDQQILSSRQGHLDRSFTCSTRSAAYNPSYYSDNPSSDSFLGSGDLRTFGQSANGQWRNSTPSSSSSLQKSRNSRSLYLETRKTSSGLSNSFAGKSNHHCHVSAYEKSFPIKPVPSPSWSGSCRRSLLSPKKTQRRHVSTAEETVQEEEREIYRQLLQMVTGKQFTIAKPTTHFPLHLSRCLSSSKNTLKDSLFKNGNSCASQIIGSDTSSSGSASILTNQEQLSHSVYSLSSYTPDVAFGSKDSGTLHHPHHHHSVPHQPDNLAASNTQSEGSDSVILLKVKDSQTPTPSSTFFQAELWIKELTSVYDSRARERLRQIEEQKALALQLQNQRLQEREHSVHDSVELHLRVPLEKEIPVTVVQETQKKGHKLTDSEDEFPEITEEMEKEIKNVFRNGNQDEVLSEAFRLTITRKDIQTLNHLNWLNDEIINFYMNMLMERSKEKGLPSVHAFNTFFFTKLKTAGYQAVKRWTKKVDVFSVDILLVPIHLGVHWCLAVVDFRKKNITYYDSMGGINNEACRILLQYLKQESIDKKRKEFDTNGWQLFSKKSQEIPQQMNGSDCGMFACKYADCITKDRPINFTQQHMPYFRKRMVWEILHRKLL

[2] = target: T1, Sentrin-specific protease 1; experiment: Dose response confirmation of small molecule inhibitors of the catalytic domain of the SUMO protease, SENP1 in a FRET assay.; assay type: functional; settings: read-out: IC50_Mean
[3] = target: T2, Corticotropin-releasing factor receptor 2/Corticotropin-releasing factor-binding protein (Homo sapiens, UniProt P24387+Q13324); experiment: activators of CRF receptor 2 with binding protein – uHTS hits, confirmation (AID 602473); assay type: functional; settings: read-out: EC50_Mean
T2 sequence (Q13324 whole entry): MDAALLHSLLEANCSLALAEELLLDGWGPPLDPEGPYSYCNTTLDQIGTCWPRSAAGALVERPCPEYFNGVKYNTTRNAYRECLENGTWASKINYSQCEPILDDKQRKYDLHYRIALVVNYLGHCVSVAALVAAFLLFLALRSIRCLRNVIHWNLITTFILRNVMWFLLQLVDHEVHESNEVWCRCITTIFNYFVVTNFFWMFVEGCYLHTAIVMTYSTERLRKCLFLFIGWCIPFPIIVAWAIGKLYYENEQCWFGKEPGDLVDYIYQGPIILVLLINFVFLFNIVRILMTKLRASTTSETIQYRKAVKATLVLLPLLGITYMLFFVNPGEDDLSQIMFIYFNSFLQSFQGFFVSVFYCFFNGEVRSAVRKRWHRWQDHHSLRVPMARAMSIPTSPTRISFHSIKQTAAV
T2 sequence (P24387 whole entry): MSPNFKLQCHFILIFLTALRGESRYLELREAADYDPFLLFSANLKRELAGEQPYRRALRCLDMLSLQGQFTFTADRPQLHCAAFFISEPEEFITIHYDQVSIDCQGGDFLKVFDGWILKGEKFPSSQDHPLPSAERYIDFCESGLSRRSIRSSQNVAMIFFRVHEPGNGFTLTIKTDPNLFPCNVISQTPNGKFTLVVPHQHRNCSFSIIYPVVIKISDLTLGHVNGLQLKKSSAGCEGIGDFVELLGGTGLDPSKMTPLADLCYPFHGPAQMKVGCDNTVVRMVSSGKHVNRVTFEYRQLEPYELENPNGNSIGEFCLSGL

HEK293 = experiment: inhibitors of LMP1-driven NF-kB reporter, dose response, cell-based, HEK293, luciferase, cherry-pick (AID 588343); assay type: functional; settings: Homo sapiens
[4] = inhibitors of HIV Env-driven cell fusion, dose response, cherry-pick (AID 652057); assay type: functional, cell-based
cells [5] = assay type: functional, cell-based
[6] = off-target signal loss in HeLa-CEM21 co-culture – HeLa F-luc CTL cells, cherry-picked, counter-screen for HIV-1 Env fusion inhibitor project, dose response (AID 652040); assay type: functional, cell-based;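 further: potency for signal decrease marking cytotoxic or nonspecific inhibition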
cells [7] = assay type: functional, cell-based; remark: listed apart in the source
[8] = ZM109 Env clade C HIV-1 fusion inhibitors, dose response, HeLa effector, CEM target cells, luciferase, cherry-pick (AID 652058); assay type: functional, cell-based
[9] = inhibitors of clade B AD8 Env fusion, dose response, cell-based, cherry-pick (AID 652062); assay type: functional;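 further: luciferase signal from cell-cell fusion driven by HIV-1 clade B AD8 Env; potency is for inhibitors of fusion seen as a drop in luminescence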
Beta-lactamase [10] = target: Beta-lactamase (Salmonella choleraesuis (strain SC-B67), UniProt Q5J463); experiment: Epi-absorbance-based counterscreen for selective VIM-2 inhibitors: dose response biochemical high throughput screening assay to identify inhibitors of TEM-1 serine-beta-lactamase.
Beta-lactamase (Salmonella choleraesuis (strain SC-B67), UniProt Q5J463), sequence (Q5J463 whole entry): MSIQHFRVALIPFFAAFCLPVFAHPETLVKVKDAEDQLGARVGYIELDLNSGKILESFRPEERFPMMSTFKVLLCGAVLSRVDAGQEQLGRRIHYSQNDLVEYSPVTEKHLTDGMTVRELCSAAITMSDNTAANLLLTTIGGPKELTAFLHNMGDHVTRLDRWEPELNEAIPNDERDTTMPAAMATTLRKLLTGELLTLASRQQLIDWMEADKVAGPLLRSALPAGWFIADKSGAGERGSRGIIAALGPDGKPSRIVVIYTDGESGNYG

[11] = target: T3, Short transient receptor potential channel 4 (Mus musculus, UniProt Q9QUQ5); experiment: mouse TRPC4 channel inhibitors, dose response, cell-based, HEK293 TRPC4/mu-opioid, Fluo-4 calcium (AID 434942); assay type: functional;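 further: potency of inhibitors blocking the TRPC4 calcium response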
T3 sequence (Q9QUQ5 whole entry): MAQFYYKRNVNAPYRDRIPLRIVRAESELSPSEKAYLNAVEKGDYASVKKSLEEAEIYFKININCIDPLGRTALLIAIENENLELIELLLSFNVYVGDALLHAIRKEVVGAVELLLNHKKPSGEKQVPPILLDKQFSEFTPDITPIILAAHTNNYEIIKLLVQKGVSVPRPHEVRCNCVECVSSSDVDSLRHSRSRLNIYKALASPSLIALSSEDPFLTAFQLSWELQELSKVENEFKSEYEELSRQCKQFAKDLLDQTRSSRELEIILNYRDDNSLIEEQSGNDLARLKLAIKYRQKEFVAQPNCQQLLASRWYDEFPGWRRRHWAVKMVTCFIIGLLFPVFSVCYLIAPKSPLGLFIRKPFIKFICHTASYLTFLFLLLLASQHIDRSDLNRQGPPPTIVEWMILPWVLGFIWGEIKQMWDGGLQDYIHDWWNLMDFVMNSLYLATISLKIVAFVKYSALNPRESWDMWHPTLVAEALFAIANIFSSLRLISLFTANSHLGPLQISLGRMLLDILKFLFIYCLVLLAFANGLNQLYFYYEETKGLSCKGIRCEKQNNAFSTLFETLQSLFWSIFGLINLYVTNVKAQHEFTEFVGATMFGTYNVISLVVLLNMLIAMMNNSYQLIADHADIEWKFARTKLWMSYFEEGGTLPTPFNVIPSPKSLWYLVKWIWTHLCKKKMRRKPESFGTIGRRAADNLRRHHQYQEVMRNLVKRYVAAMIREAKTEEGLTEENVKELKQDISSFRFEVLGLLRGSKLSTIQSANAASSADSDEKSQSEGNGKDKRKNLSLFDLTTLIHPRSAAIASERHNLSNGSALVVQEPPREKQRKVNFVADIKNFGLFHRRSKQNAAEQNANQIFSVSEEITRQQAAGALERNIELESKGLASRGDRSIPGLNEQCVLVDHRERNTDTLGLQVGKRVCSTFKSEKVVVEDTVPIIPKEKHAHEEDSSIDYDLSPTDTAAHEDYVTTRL

Beta-lactamase [12] = target: T4, Beta-lactamase (Pseudomonas aeruginosa, UniProt Q79MP6); experiment: […] counterscreen for selective VIM-2 inhibitors: dose response biochemical high throughput screening assay to identify inhibitors of IMP-1 metallo-beta-lactamase.
T4 sequence (Q79MP6 whole entry): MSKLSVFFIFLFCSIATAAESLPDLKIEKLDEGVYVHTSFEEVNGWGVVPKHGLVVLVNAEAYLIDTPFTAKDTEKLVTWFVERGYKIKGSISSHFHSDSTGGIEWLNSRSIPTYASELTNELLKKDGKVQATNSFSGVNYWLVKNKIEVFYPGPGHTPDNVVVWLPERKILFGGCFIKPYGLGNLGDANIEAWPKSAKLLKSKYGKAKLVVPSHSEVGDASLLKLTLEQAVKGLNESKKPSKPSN

Beta-lactamase [13] = target: T4, Beta-lactamase; experiment: IMP-1 metallo-beta-lactamase inhibitors, dose response, selectivity assay for VIM-2 inhibitor project, biochemical, epi-absorbance (AID 1920)
Cysteine protease ATG4B = target: T5, Cysteine protease ATG4B (Homo sapiens, UniProt Q9Y4P1); assay type: functional;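 further: Fluorescence-based dose-response confirmation assay measuring inhibition of ATG4B activity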
T5 sequence (Q9Y4P1 whole entry): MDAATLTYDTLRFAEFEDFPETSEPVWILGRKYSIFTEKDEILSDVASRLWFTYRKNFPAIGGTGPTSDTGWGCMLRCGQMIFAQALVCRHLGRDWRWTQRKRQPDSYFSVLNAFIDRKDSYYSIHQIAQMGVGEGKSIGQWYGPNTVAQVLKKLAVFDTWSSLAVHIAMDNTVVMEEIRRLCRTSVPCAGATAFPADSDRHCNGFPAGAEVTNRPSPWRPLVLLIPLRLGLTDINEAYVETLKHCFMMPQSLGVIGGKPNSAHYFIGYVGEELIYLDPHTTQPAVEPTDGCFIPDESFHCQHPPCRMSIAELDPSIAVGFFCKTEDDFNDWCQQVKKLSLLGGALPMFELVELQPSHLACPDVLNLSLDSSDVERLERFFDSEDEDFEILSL

Phospholipase A2 = Phospholipase A2 (Homo sapiens, UniProt P04054); assay type: functional;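 further: confirmatory dose-response counterscreen on phospholipase A2, testing hits that came from an ultra-high-throughput screen for ATG4B inhibitors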
Phospholipase A2, sequence (P04054 whole entry): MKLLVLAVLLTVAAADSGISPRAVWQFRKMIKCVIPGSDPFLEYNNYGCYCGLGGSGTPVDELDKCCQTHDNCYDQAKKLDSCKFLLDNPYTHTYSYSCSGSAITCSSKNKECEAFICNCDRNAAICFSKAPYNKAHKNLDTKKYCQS

[14] = target: Fructose-bisphosphate aldolase (Mycobacterium tuberculosis, UniProt P9WQA3); experiment: Fluorescence-based biochemical high throughput dose response assay for inhibitors of the fructose-bisphosphate aldolase (FBA) of M. tuberculosis.; assay type: functional
Fructose-bisphosphate aldolase, sequence (P9WQA3 whole entry): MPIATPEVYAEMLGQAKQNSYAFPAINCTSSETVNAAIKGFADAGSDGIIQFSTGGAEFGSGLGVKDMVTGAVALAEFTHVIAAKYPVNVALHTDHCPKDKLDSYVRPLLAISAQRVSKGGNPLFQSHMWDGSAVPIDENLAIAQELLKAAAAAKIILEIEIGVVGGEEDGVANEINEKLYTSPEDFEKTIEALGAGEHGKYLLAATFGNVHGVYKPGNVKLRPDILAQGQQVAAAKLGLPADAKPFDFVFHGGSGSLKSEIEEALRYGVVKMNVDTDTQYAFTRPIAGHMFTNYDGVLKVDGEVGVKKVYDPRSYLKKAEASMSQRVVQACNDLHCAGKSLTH

[15] = target: T6, Methionyl-tRNA synthetase, putative (Trypanosoma brucei brucei, UniProt Q38C91); assay type: functional, Trypanosoma brucei brucei strain 927/4 GUTat10.1
T6 sequence (Q38C91 whole entry): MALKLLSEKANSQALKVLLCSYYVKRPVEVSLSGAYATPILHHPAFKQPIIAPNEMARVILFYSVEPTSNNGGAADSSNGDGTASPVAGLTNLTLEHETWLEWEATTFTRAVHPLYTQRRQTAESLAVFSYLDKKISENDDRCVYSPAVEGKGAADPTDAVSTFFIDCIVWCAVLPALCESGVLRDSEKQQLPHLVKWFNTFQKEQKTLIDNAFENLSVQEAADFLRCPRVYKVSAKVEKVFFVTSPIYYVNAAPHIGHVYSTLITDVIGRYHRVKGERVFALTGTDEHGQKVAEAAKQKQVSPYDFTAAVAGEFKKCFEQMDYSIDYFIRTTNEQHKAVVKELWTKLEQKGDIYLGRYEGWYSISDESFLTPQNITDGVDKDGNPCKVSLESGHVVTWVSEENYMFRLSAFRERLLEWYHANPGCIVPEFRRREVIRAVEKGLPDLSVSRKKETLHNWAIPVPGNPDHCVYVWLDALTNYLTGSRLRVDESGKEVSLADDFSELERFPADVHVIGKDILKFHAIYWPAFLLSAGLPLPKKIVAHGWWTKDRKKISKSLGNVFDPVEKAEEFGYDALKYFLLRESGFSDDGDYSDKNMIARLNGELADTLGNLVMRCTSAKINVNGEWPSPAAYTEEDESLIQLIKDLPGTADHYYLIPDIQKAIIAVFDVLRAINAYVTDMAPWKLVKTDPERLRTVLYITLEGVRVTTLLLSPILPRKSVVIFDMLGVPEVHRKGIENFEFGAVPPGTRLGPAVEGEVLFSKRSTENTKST

[16] = Counterscreen for inhibitors of Trypanosoma brucei methionyl tRNA synthetase (MetRS): Luminescence-based cell-based high throughput dose response assay to identify compounds that are cytotoxic to Jurkat human T lymphocyte cells.; assay type: functional
[17] = target: T6, Methionyl-tRNA synthetase, putative; assay type: functional, Trypanosoma brucei brucei strain 927/4 GUTat10.1; remark: listed apart in the source
[18] = HEK293 cell viability, dose response, counter-screen for EBV LMP1 inhibitor project, dry powder, set 2 (AID 624374); assay type: functional
[19] = P. falciparum late gametocyte killing, dose response, luminescence (AID 1117278); assay type: functional, cell-based;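 further: gametocytes exposed to compound for 24 hours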
[20] = Jurkat T cell cytotoxicity, dose response, cytotoxicity control for P. falciparum gametocyte viability project, luminescence (AID 1117277); assay type: functional, cell-based;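 further: potency reflects loss of cellular ATP meaning fewer viable cells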
Vero = experiment: Vero cell toxicity, dose response, cytotoxicity control, plate reader, cherry-pick samples (AID 687020); assay type: functional, cell-based; settings: Chlorocebus sabaeus
[21] = target: Heat shock protein HSP 90-alpha (Homo sapiens, UniProt P07900); assay type: functional, organism-based
Cytochrome P450 3A4 = Cytochrome P450 3A4 (Homo sapiens, UniProt P08684);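 further: CYP3A4 tested as one member of a cytochrome P450 panel screen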
Cytochrome P450 3A4, sequence (P08684 whole entry): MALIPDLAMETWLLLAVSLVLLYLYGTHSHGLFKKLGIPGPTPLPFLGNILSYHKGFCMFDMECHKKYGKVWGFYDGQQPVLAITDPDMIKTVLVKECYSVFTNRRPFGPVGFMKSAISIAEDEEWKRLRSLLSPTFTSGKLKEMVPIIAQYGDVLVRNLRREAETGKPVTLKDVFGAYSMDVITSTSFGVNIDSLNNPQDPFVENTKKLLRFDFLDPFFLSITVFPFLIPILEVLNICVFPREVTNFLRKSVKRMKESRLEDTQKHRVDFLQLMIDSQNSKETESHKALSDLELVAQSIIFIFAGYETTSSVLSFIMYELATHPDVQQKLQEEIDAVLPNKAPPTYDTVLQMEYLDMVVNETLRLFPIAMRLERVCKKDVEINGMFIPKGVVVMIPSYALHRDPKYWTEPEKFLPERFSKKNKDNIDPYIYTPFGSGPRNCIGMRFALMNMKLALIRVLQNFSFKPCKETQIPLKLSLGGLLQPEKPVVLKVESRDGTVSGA

[22] = target: Voltage-gated inwardly rectifying potassium channel KCNH2 (Homo sapiens, UniProt Q12809); settings: Potency;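 further: confirmatory quantitative high-throughput screen measuring inhibition of hERG channel activity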
Voltage-gated inwardly rectifying potassium channel KCNH2, sequence (Q12809 whole entry): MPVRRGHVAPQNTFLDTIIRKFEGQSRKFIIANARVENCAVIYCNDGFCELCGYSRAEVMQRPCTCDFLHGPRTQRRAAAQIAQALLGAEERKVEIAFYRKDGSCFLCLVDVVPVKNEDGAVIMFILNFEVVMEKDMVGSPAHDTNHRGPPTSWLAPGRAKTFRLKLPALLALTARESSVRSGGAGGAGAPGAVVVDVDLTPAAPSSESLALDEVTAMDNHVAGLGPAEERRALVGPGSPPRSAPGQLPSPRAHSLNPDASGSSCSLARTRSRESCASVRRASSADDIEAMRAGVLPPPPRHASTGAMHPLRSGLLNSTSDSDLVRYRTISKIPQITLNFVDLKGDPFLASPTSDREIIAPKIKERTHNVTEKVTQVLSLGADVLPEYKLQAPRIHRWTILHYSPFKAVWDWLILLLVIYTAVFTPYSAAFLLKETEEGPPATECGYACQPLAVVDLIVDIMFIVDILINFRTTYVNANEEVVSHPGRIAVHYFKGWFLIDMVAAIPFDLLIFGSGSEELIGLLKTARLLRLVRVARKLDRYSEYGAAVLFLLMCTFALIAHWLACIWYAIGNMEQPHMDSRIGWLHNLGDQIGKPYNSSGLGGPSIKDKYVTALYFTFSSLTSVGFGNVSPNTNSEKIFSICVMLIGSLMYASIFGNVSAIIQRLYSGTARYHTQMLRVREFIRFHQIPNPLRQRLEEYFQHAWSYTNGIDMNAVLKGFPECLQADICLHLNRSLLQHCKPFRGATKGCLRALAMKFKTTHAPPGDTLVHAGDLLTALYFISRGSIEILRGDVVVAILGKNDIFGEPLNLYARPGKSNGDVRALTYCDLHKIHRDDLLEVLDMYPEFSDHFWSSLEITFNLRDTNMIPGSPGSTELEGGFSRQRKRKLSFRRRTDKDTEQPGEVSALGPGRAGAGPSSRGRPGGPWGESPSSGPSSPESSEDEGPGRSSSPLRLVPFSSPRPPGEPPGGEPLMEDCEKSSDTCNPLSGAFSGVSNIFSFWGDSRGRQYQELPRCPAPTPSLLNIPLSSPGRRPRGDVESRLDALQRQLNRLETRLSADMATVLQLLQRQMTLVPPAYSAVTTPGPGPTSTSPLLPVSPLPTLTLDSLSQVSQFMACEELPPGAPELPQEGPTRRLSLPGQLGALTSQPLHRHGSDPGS

[23] = target: Long-chain-fatty-acid--AMP ligase FadD28 (Mycobacterium tuberculosis, UniProt P9WQ59); experiment: Fluorescence polarization aasay to screen for inhibitors that compete for the binding of FadD28 to a bisubstrate Measured in Biochemical System Using Plate Reader - 2147-01_Inhibitor_Dose_CherryPick_Activity.; assay type: functional, Mycobacterium tuberculosis H37Rv
Long-chain-fatty-acid--AMP ligase FadD28, sequence (P9WQ59 whole entry): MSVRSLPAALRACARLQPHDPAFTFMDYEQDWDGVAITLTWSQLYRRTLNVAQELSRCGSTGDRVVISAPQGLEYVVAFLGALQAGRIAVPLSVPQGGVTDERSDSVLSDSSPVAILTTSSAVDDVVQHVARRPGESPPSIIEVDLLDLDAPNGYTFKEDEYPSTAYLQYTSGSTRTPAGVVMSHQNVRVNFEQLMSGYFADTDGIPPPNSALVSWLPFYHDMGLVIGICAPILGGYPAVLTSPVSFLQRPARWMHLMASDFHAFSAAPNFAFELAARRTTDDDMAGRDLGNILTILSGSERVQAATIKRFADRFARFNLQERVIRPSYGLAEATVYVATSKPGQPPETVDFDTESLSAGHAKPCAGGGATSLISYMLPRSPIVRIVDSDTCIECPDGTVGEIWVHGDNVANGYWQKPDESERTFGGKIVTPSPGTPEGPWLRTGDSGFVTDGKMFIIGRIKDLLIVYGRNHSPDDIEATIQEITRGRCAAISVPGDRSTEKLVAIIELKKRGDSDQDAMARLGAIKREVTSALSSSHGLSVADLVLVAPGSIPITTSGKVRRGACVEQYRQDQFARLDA

CN(C)N=C(S)Nc1ccc2nc(-c3ccccn3)c(-c3ccccn3)nc2c1
IC50 [1]: 14.3 µM (active)
IC50 [2]: 9.92 µM (active)
EC50 [3]: > 53 µM (inactive)

NC(=O)c1sc2nccc(Nc3ccccc3)c2c1N
AC50 (HEK293): 3.96 µM (active)
AC50 [4]: 1.37 µM (active)
EC50 (cells [5]): > 350 µM (not active)
AC50 [6]: 2.12 µM (active)
EC50 (cells [7]): > 350 µM (not active)
AC50 [8]: 0.726 µM (active)
AC50 [9]: < 0.26 µM (active)

O=C1Nc2cc(C(=O)NCCCN3CCOCC3)ccc2S/C1=C/c1ccccc1F
IC50 (Beta-lactamase [10]): > 59.6 µM (inactive)
EC50 [11]: 2.66 µM (active)
IC50 (Beta-lactamase [12]): > 59.6 µM (inactive)
IC50 (Beta-lactamase [13]): > 59.6 µM (inactive)

CC(C)(C)C(=O)Nc1nnc(CSCc2ccccc2F)s1
IC50 (Beta-lactamase [10]): > 59.6 µM (inactive)
IC50 (Cysteine protease ATG4B): 8.86 µM (active)
IC50 (Beta-lactamase [12]): > 59.6 µM (inactive)
IC50 (Phospholipase A2): 6.65 µM (active)
IC50 (Beta-lactamase [13]): > 59.6 µM (inactive)

CCCC1OC23CCCCC2C(C#N)(C(=N)O3)C1(C#N)C#N (stereo not drawn)
IC50 [14]: > 9.99 µM (inactive)

Cc1ccc(NC(=O)CN(C)C(=O)Cc2ccc(Cl)cc2Cl)cc1
IC50 [15]: 6.81 µM (active)
IC50 [16]: 83.3 µM (inactive)
IC50 [17]: 16.5 µM (inactive)

C[C@H](NC(=O)C[C@@H]1C=C[C@@H](NC(=O)Cc2ccccn2)[C@@H](CO)O1)c1ccccc1
AbsAC35 [18]: 153.45 µM

CN1C(=O)c2cc(NC(=O)Cc3cccs3)ccc2OC[C@@H]2O[C@H](CC(=O)NCc3ccc(-c4ccccc4)cc3)CC[C@H]21
AbsAC35 [18]: 112.32 µM

O=[N+]([O-])c1ccc(-c2ccc(/C=N/c3cccc4ccccc34)o2)cc1
IC50 [14]: 8.15 µM (active)

COc1ccc(C2=Nn3c(nnc3-c3ccccc3OC)SC2)cc1OCC1CC1
IC50 [19]: > 109 µM (inactive)
IC50 [20]: 0.35 µM (active)
AC50 (Vero): 29.1 µM (active)

CCCCCCCC/C=C\CCCCCCCC(=O)NCCO [OLEOYLETHANOLAMIDE]
AC50 [21]: 7.67 µM (active)
AC50 (Cytochrome P450 3A4): 31.6 µM (inconclusive)
AC50 [22]: 35.5 µM (inconclusive)
AC50 [23]: > 100 µM (inactive)
